# Results published in patent US11440932B2, “Surfactant compounds-clips for extraction and stabilization in solution of membrane proteins” (CENTRE NATIONAL DE LA RECHERCHE SCIENTIFIQUE, priority 2017, dated 2022).
# Key:
# AcrB = target: T1, AcrB (Escherichia coli, UniProt P31224); assay: Extraction of AcrB from membranes (SDS-PAGE of supernatant); design: species or system bacterial; same expression system (E. coli C41DE3); details: detergent 10 g/l unless indicated otherwise; 2 h at 4° C.
# T1 construct: made in house; host or cells: E. coli C41(DE3)
# In short: (§1)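 E. coli C41(DE3) membranes overexpressing BmrA (~25% of protein) or AcrB (~20%), at 2 g/l protein in 20 mM Tris-HCl pH 8.0, 100 mM NaCl, 15% glycerol with protease inhibitors, treated with detergent at 10 g/l unless stated otherwise for 2 h at 4° C. After 100 000×g centrifugation, 20 μg supernatant protein run on 10% SDS-PAGE, Coomassie-stained.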
# [1] = Critical micelle concentration (CMC) by DPH fluorescence; format: physicochemical; details: for CMC: 50 mM tris-HCl, pH 8.0
# BmrA = target: T2, BmrA (Bacillus subtilis, UniProt O06967); assay: Extraction of BmrA from membranes (SDS-PAGE of supernatant); design: species or system bacterial; overexpressed in E. coli C41DE3; details: detergent 10 g/l unless indicated otherwise; 2 h at 4° C.
# T2 construct: His tag; made in house; host or cells: E. coli C41(DE3)
# In short: as §1
# [2] = Diameter of micelles by dynamic light scattering (DLS); format: physicochemical; details: for Ø, nm: estimated micelle diameter by DLS, 30 mM tris-HCl, pH 8.0
# Experimental: FIG. 5 depicts the dynamic light scattering (DLS) of clips, in intensity (%, column A on the left) and in number (%, column B on the right), as a function of the […] (nm). The estimated diameters are indicated on each panel (column A). Columns A and B, from top to bottom: compound 3.7c (10 mM, 5×CMC), compound 3.7d (10 mM, 5×CMC), compound 3.7e (2 mM, […]), compound 3.7f (10 mM, 500×CMC), compound 3.7h (1 mM, 100×CMC), compound 3.7j (2 mM, 100×CMC), compound 3.9a (1 mM, 50×CMC).
# Another physicochemical parameter of the micelles of detergents is their diameter, assuming that they are spherical. This dimension is obtained by the light scattering (DLS) technique.
# Procedure. The molecules of the invention tested were prepared in a range of concentrations extending from 0.1 to 1000×CMC in 30 mM tris-HCl, pH 8.0 and neutralized at this pH. The solutions are filtered on 0.22 μm. The measurement is carried out on 100 μl, in triplicate on a Zetasizer Nano-S from Malvern Instruments.
# T2 sequence (O06967 whole entry): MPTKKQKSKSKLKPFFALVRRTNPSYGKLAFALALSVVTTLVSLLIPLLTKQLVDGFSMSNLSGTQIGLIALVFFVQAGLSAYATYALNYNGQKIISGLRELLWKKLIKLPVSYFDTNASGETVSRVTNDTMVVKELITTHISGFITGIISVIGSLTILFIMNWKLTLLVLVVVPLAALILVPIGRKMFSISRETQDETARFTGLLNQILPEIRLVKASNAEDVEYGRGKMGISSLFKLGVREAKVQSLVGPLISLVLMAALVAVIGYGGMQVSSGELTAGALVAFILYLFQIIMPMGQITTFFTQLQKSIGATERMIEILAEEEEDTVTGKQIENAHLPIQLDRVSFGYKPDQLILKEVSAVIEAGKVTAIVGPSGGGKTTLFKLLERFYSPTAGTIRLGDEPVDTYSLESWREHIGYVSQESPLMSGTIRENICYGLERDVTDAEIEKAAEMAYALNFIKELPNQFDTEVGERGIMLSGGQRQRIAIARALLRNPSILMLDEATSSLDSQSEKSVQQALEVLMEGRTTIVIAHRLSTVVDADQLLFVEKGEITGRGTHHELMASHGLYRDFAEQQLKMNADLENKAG
# T1 sequence (P31224 whole entry): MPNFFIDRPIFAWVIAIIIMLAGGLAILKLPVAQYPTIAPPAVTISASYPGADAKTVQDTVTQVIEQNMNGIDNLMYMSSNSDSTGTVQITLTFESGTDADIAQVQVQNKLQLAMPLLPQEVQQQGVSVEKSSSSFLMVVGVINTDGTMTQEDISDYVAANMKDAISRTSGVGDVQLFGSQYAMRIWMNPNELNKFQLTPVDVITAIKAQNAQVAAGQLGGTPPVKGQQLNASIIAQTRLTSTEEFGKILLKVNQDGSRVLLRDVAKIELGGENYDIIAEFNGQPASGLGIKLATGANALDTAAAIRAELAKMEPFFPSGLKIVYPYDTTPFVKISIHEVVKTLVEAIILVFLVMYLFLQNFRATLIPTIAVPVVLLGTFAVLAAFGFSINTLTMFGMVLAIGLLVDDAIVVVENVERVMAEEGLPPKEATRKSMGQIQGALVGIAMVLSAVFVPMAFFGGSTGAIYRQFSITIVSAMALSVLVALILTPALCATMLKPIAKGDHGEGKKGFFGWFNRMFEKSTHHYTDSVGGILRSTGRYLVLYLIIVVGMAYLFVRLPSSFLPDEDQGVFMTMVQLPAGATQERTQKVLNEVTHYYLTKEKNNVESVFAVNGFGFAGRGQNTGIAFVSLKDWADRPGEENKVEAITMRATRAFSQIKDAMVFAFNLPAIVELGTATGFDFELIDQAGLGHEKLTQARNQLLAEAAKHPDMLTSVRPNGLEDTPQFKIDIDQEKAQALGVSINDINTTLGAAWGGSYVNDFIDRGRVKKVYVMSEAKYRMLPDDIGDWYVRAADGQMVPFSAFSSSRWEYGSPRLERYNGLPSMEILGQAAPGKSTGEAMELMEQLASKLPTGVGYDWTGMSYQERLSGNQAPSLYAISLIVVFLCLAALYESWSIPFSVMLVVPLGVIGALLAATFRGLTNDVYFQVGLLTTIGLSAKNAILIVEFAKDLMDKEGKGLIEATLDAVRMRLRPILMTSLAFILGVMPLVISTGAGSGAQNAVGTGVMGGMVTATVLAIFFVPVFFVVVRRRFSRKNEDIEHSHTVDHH
Compound,extraction of AcrB (AcrB),CMC [1] [mM],extraction of BmrA (BmrA),"Ø, nm [2] [nm]","CMC (breakage in the slope of DPH fluorescence, FIG. 4) ([1]; triplicates) [mM]",estimated diameter ([2]; DLS) [nm]
CCCCCCCCCCCC(=O)N[C@@H](COCc1cn(CCO[C@@H]2OC(CO)[C@@H](O)C(O)C2O)nn1)C(=O)N[C@H](CCC(=O)O)C(=O)O (stereo partly shown) [Compound 3.7b],do not extract,1.5,non-extracting,–,–,–
CCCCCCCCCCCCCC(=O)N[C@@H](COCc1cn(CCO[C@@H]2OC(CO)[C@@H](O)C(O)C2O)nn1)C(=O)N[C@H](CCC(=O)O)C(=O)O (stereo partly shown) [Compound 3.7c],extracting,1,extracting,3.8,–,–
CCCCCCCCCCCCCC(=O)N[C@@H](COCc1cn(CCO[C@@H]2OC(CO)[C@@H](O[C@H]3OC(CO)[C@@H](O)C(O)C3O)C(O)C2O)nn1)C(=O)N[C@H](CCC(=O)O)C(=O)O (stereo partly shown) [Compound 3.7e],extracting,2,non-extracting,3.5,2,–
CCCCCCCCCCCCCC(=O)N[C@@H](COCc1cn(CCOCCOCCOCCOCCOCCOC)nn1)C(=O)N[C@H](CCC(=O)O)C(=O)O [Compound 3.7g],–,1,extracting,–,–,–
CCCCCCCCCCCCC(CCCCCCCCCCCC)C(=O)N[C@@H](COCc1cn(CCO[C@@H]2OC(CO)[C@@H](O)C(O)C2O)nn1)C(=O)N[C@H](CCC(=O)O)C(=O)O (stereo partly shown) [Compound 3.7j],extracting,0.02,partially extracting,60,–,~60
CCCCCCCCCCCCCC(=O)N[C@@H](COCc1cn(CCO[C@@H]2OC(CO)[C@@H](O)C(O)C2O)nn1)C(=O)N[C@@H](CCC(=O)O)C(=O)NCC(=O)O (stereo partly shown) [Compound 3.7l],extracting,1,extracting,–,–,–
